In data set [1] the test system is arterial ring angiogenesis in rats. The data set is described as follows: Inhibitory actions on arterial ring angiogenesis in rats. The following applies: Rattus norvegicus, area covered by micrangiums vs control well, read-out: Inhibitory rate (%); for inhibition at 0.2 µg/mL: 0.2 μg/ml; for inhibition at 1 µg/mL: 1 μg/ml; for inhibition at 5 µg/mL: 5 μg/ml. In kind it is cell-based. As for the experimental part:
This experiment was conducted by referring to the method described by R. F. Nicosia et al (Nicosia, R. F., et al. Am J Pathol., 1997, 151, 1379-1386). Rats were executed by cervical dislocation. The thoracic aorta was carefully separated, and placed in a container with physiological saline. The excess tissues were carefully cut off. The blood vessels were cut with a pair of ophthalmic scissors to form 1 mm thick vascular ring slices. To a pre-cooled 96-well cell culture plate, one separated vascular ring was placed in the center of each well. 70 μl of pre-molten Matrigel was carefully added to cover the vascular ring, which was incubated at 37° C. for 1 h so as to solidify it. […] The sample was placed in incubator for conventional culture, and each compound was tested at least in two repeated wells, and each test was repeated twice. […] The fresh culture medium was replaced every 3 days, and the drug was changed at the same time. The survival status of vascular rings was observed under microscope, and pictures were taken at the same time. Image Pro Plus software was used to calculate the area covered by micrangiums. The average inhibition rate was calculated by using the formula: inhibition rate (%)=(area of control well−area of drug well)/area of control well×100%.

Data set [2] can be described thus: Cytotoxicity test (SRB), A549. In kind it is cell-based. The following applies: human, A549 non-small cell lung cancer cells. The procedure: (§1) Cytotoxicity of the compounds of the present invention was tested with human non-small cell lung cancer cells A549, human cervical cancer Hela cells, human skin cancer cells A431. The test was performed by referring to the method described by Rusnak et al (Rusnak D. W., et al., Cell Prolif., 2007, 40, 580-94).
(§2) In Dulbecco's Modified Eagle Medium (DMEM) comprising 10% fetal bovine serum, 2 mM glutamine and non-essential amino acids, cells were cultured at 37° C. in 5% CO2 cell incubator. Trypsin/ethylenediamine tetraacetic acid (EDTA) were used to harvest cells in cell culture bottle. The cells were added to a 96-well cell culture plate, 4000/well (0.1 ml medium), adhering wall overnight, 0.1 ml of the diluted solution of the compounds to be tested was added, the final concentration of DMSO was 0.25%. The cell culture plate was incubated at 37° C., 5% CO2 conditions for 72 h. The change of cellular morphology was observed under microscope, and then 50 μl of 50% (mass/volume) trichloroacetic acid (TCA) was added to each well to fix cells. The final concentration of TCA was 10%. It stood for 5 min, than was placed in 4° C. refrigerator for 1 h, the wells of the culture plate were washed with deionized water for 5 times to remove TCA, drained, dried in air until no wet trace was observed. 100 μl of 0.4% (mass/volume) SRB was added to each well, stood at room temperature for 10 min. The liquid in each well was discarded, and then the wells were washed with 1% acetic acid for 5 times, dried in air, extracted with 150 μl of 10 mM Tris base (trihydroxymethylaminomethane, pH 10.5). The absorption at a wavelength of 540 nm was measured. The IC50 (μM) of the compound was calculated using Logit method.

A short description of data set [3]: Cytotoxicity test (SRB), A431. The data set is classed as cell-based. The following applies: human, A431 skin cancer cells. The procedure:
as §1, §2

A short description of data set [4]: Cytotoxicity test (SRB), Hela. In kind it is cell-based. The following applies: human, Hela cervical cancer cells. As for the experimental part:
Cytotoxicity of the compounds of the present invention was tested with human non-small cell lung cancer cells A549, human cervical cancer Hela cells, human skin cancer cells A431. The test was performed by referring to the method described by Rusnak et al (Rusnak D. W., et al., Cell Prolif., 2007, 40, 580-94). […] Trypsin/ethylenediamine tetraacetic acid (EDTA) were used to harvest cells in cell culture bottle. The cells were added to a 96-well cell culture plate, 4000/well (0.1 ml medium), adhering wall overnight, 0.1 ml of the diluted solution of the compounds to be tested was added, the final concentration of DMSO was 0.25%. The cell culture plate was incubated at 37° C., 5% CO2 conditions for 72 h. […] The absorption at a wavelength of 540 nm was measured. The IC50 (μM) of the compound was calculated using Logit method.

Data set [5] has as its system human colon cancer HT 29 transplanted tumor. The data set can be described thus: Nude mice transplanted tumor test. The data set is classed as in vivo, female Balb/cA nude mice. Further details: key to d21 Vave ± SD (average tumor volume): tumor volume TV = ½×a×b² (a, b = major, minor diameter), in mm³. The following applies: for Dead animal number / inhibition in vivo at 80 mg/kg / d21 Wave ± SD (average bodyweight of nude mice) / d21 Vave ± SD (average tumor volume) / d21 RTV ± SD (relative tumor volume): 80 mg/kg intragastrically each day for 20 days; for Dead animal number: dead/total animals; for inhibition in vivo at 80 mg/kg: Mus musculus, HT-29, po, 504 h, (1−T/C)×100%, read-out: Tumor inhibition rate d21 (%); for inhibition in vivo at 80 mg/kg / d21 Wave ± SD (average bodyweight of nude mice) / d21 Vave ± SD (average tumor volume) / d21 RTV ± SD (relative tumor volume): d21; for d0 Wave ± SD (average bodyweight of nude mice): d0, at grouping before administration (baseline); for d21 Vave ± SD (average tumor volume): HT 29 in nude mice; for d21 RTV ± SD (relative tumor volume): RTV=Vt/V0. The procedure: The nude mice transplanted tumor test used female Balb/cA nude mice, and tumor strains were human colon cancer HT 29 strains.
Under sterile condition, eugonic tumor tissues stage were cut into pieces of about 1.5 mm^3, and inoculated at right axillary fossa of the nude mice. The transplanted tumor diameter was measured by vernier caliper, and the animals were randomly grouped after the tumors grew to about 120 mm^3. The positive control group and the compounds group in a dosage of 80 mg/kg were administered intragastrically each day for consecutive 20 days. The negative control group was given equivalent amount of injection water containing 0.1% Tween 80. Tumor diameters and the bodyweight of mice were measured 2-3 times every week. The evaluation indexes observed in the test include relative tumor proliferation rate, bodyweight and general states. The formulation for calculating tumor volume (TV) is: TV=½×a×b^2, wherein a, b represent major diameter and minor diameter of tumor; Relative tumor volume (RTV) was calculated according the results of measurement by the following formula: RTV=Vt/V0, wherein V0 is tumor volume measured when dividing groups for administration, and Vt is tumor volume measured after each administration.

SMILES strings stand for the structures.

Regarding `CCN1CCN(CC(=O)Nc2c(C)[nH]c(/C=C3\C(=O)Nc4ccc(F)cc43)c2C)CC1` [Compound 18, N-{5-[5-fluoro-2-oxo-1,2-dihydro-indol-(3Z)-ylidenemethyl]-2,4-dimethyl-1H-pyrrol-3-yl}-2-(4-ethylpiperazin-1-yl)acetamide], in data set [1], the inhibition at 0.2 µg/mL was 99%, the inhibition at 1 µg/mL came to 100% and the inhibition at 5 µg/mL came out at 100%. The IC50 at 72 h in data set [2] was > 30 µM. For the same compound, in data set [3], the IC50 at 72 h was > 30 µM. In addition, it took 4.15 µM to reach half-maximal inhibition in data set [4] (IC50 at 72 h). For the same compound, in data set [5], the Dead animal number is 0/6, the inhibition in vivo at 80 mg/kg was 90.1%, the “d0 Wave ± SD (average bodyweight of nude mice)” value (shortened to “d0 Wave ± SD”) was found to be 19.1 ± 0.48 and the “d21 Wave ± SD (average bodyweight of nude mice)” value (“d21 Wave ± SD” for short) is reported as 18.9 ± 0.69. Also, in data set [5], the “d21 RTV ± SD (relative tumor volume)” value is given as 0.73 ± 0.45. In addition, the “d21 Vave ± SD (average tumor volume)” value in data set [5] (in mm³ (unit assumed)) was determined as 86.2 ± 45.3.
With `CCN(CC)CC(=O)Nc1c(C)[nH]c(/C=C2\C(=O)Nc3ccc(Cl)cc32)c1C` [Compound 21, N-{5-[5-chloro-2-oxo-1,2-dihydro-indol-(3Z)-ylidenemethyl]-2,4-dimethyl-1H-pyrrol-3-yl}-2-(N,N-diethylamino)acetamide], in data set [1], the inhibition at 0.2 µg/mL was determined as 95%, the inhibition at 1 µg/mL is 100% and the inhibition at 5 µg/mL was found to be 100%. For the same compound, in data set [2], the IC50 at 72 h was > 30 µM. Further, in data set [3], the IC50 at 72 h was > 30 µM. For the same compound, the IC50 at 72 h in data set [4] is > 30 µM. In data set [5], the Dead animal number is reported as 0/6, the inhibition in vivo at 80 mg/kg turned out to be 89%, the “d0 Wave ± SD” value amounted to 18.9 ± 0.47 and the “d21 Wave ± SD” value came out at 19.3 ± 0.76. The “d21 RTV ± SD (relative tumor volume)” value in data set [5] is 0.79 ± 0.63. The “Activity of inhibiting HT-29 transplanted tumor in vivo (in words)” value in data set [5] (80 mg/kg, compared with positive control Sunitinib) was “inhibitory activity comparable to the positive control Sunitinib”. In addition, the “d21 Vave ± SD (average tumor volume)” value in data set [5] (in mm³ (unit assumed)) is reported as 94.3 ± 37.2.
For `Cc1[nH]c(/C=C2\C(=O)Nc3ccc(F)cc32)c(C)c1NC(=O)CN(C)C` [Compound 22, N-{5-[5-fluoro-2-oxo-1,2-dihydro-indol-(3Z)-ylidenemethyl]-2,4-dimethyl-1H-pyrrol-3-yl}-2-(N,N-dimethylamino)acetamide], in data set [1], the inhibition at 0.2 µg/mL amounted to 90%, the inhibition at 1 µg/mL is 100% and the inhibition at 5 µg/mL was 100%. Besides, in data set [2], the 50% inhibitory concentration (IC50) at 72 h was > 30 µM. In data set [3], the IC50 at 72 h was > 30 µM. Further, the IC50 at 72 h in data set [4] is > 30 µM. In data set [5], the Dead animal number is listed as 0/6, the inhibition in vivo at 80 mg/kg came to 88.1%, the “d0 Wave ± SD” value was 19.7 ± 0.38 and the “d21 Wave ± SD” value was 20.1 ± 0.35. Moreover, in data set [5], the “d21 RTV ± SD (relative tumor volume)” value is reported as 0.86 ± 0.54. Moreover, in data set [5] (in mm³ (unit assumed)), the “d21 Vave ± SD (average tumor volume)” value is listed as 104.6 ± 43.6.
Consider `CCN(CC)CC(=O)Nc1c(C)[nH]c(/C=C2\C(=O)Nc3cc(C(F)(F)F)ccc32)c1C` [Compound 24, N-{5-[6-trifluoromethyl-2-oxo-1,2-dihydro-indol-(3Z)-ylidenemethyl]-2,4-dimethyl-1H-pyrrol-3-yl}-2-(N,N-diethylamino)acetamide], for which, in data set [1], the inhibition at 0.2 µg/mL is 98%, the inhibition at 1 µg/mL was found to be 100% and the inhibition at 5 µg/mL amounted to 100%. Also, the IC50 at 72 h in data set [2] was > 30 µM. The half-inhibitory concentration (IC50) at 72 h in data set [3] worked out at 8.89 µM. Inhibition in data set [4] was half-maximal at 3.56 µM (IC50 at 72 h). In data set [5], the Dead animal number is given as 0/6, the inhibition in vivo at 80 mg/kg is 64.9%, the “d0 Wave ± SD” value is recorded as 18.6 ± 0.36 and the “d21 Wave ± SD” value stood at 17.9 ± 0.58. Also, the “d21 RTV ± SD (relative tumor volume)” value in data set [5] amounted to 2.52 ± 0.23. Besides, the “d21 Vave ± SD (average tumor volume)” value in data set [5] (in mm³ (unit assumed)) is given as 298.5 ± 55.8.
Take `CCN(CC)CC(=O)Nc1c(C)[nH]c(/C=C2\C(=O)Nc3ccc([N+](=O)[O-])cc32)c1C` [Compound 26, N-{5-[5-nitro-2-oxo-1,2-dihydro-indol-(3Z)-ylidenemethyl]-2,4-dimethyl-1H-pyrrol-3-yl}-2-(N,N-diethylamino)acetamide]: in data set [1], the inhibition at 0.2 µg/mL amounted to 93%, the inhibition at 1 µg/mL stood at 100% and the inhibition at 5 µg/mL was determined as 100%. The half-maximal inhibitory concentration (IC50) at 72 h in data set [2] is > 30 µM. Moreover, in data set [3], the IC50 at 72 h is > 30 µM. Moreover, the midpoint of inhibition in data set [4], the IC50 at 72 h, lay at 4.62 µM. In data set [5], the Dead animal number is on record as 0/6, the inhibition in vivo at 80 mg/kg was 64.8%, the “d0 Wave ± SD” value stood at 19.3 ± 0.55 and the “d21 Wave ± SD” value stood at 20.5 ± 0.35. Besides, in data set [5], the “d21 Vave ± SD (average tumor volume)” value is reported as 305.6 ± 46.7 and the “d21 RTV ± SD (relative tumor volume)” value is 2.53 ± 0.43.
As for `CCN(CC)CC(=O)Nc1c(C)[nH]c(/C=C2\C(=O)Nc3ccc(NC(C)=O)cc32)c1C` [Compound 28, N-{5-[5-acetylamino-2-oxo-1,2-dihydro-indol-(3Z)-ylidenemethyl]-2,4-dimethyl-1H-pyrrol-3-yl}-2-(N,N-diethylamino)acetamide], in data set [1], the inhibition at 0.2 µg/mL stood at 90%, the inhibition at 1 µg/mL came to 100% and the inhibition at 5 µg/mL turned out to be 100%. Further, the half-maximal inhibitory concentration (IC50) at 72 h in data set [2] is > 30 µM. Also, the IC50 at 72 h in data set [3] is > 30 µM. For the same compound, the IC50 at 72 h in data set [4] was > 30 µM. Moreover, in data set [5], the Dead animal number is given as 0/6, the inhibition in vivo at 80 mg/kg is 77%, the “d0 Wave ± SD” value came to 18.8 ± 1.01 and the “d21 Wave ± SD” value stood at 19.5 ± 0.86. Further, the “d21 RTV ± SD (relative tumor volume)” value in data set [5] is 1.65 ± 0.62. Further, the “d21 Vave ± SD (average tumor volume)” value in data set [5] (in mm³ (unit assumed)) amounted to 204.3 ± 52.7.

Usually IC50 stands for the point on the concentration scale where inhibition reaches its midpoint.

These data come from patent publication US8637681B2, “Pyrrolyl substituted dihydroindol-2-one derivatives, preparation methods and uses thereof” (Qilu Pharmaceutical Co., Ltd., priority 2010, dated 2014).
